{"source": "paper PMC12021087", "about": "“RFWD3 Reprograms Nucleotide Metabolism Through PHGDH to Induce Chemoresistance In Osteosarcoma” (Advanced Science, 2025)", "molecular_target": "T1, RFWD3 (Ring Finger and WD Repeat Domain 3) (Homo sapiens, UniProt Q6PCD5)", "T1 construct": "endogenous full-length protein in whole lysate of 143B osteosarcoma cells, no tag", "T1 sequence (Q6PCD5 1-774)": "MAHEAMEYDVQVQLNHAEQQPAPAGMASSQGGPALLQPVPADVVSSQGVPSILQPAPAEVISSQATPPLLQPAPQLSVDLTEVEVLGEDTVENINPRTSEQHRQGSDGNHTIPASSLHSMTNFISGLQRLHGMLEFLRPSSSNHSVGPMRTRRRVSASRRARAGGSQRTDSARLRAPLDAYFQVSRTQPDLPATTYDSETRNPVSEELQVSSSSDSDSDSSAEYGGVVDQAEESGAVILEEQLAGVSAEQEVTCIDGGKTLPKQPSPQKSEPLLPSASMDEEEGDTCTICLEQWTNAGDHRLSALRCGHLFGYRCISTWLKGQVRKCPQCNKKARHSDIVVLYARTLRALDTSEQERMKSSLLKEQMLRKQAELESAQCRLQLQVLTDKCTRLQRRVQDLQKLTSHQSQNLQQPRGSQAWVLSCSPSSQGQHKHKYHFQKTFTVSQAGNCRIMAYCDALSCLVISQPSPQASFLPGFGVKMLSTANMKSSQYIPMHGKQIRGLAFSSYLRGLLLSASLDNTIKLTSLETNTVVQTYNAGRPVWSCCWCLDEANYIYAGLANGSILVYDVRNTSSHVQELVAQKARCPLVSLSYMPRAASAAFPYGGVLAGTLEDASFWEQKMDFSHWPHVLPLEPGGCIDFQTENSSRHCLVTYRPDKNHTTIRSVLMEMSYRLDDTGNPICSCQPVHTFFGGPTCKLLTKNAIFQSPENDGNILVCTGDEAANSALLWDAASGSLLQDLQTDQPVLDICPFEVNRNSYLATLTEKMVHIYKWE", "experiment": "CETSA (lysate, Western blot) and DARTS (pronase)", "format": "biochemical", "settings": "143B cell lysate; CETSA 10 µM lomitapide, 1 h room temperature, heated 5 min; DARTS 1 and 10 µM lomitapide, 4 h, pronase 2 µg/mL", "data": [{"smiles": "O=C(NC1CCN(CCCCC2(C(=O)NCC(F)(F)F)c3ccccc3-c3ccccc32)CC1)c1ccccc1-c1ccc(C(F)(F)F)cc1", "note": "[lomitapide]", "values": [{"measurement": "CETSA (lysate, Western blot) and DARTS (pronase)", "result": "lomitapide protected RFWD3 from pronase degradation and significantly enhanced its thermal stability"}]}]}
